In patent publication US11498928B2, “Macrocyclic spiroethers as Mcl-1 inhibitors” (ASCENTAGE PHARMA (SUZHOU) CO., LTD., priority 2019, dated 2022):
Where two headings read alike, the source gives them in different places.

Legend:
[1] = amide bond, T3P, DCM, 2.0 h
[2] = target: T1, Mcl-1 protein (residues 171-323) (Homo sapiens, UniProt Q07820); test: Inhibition of Mcl-1 by fluorescence polarization (FP) competitive binding assay with FAM-Bid tracer; conditions: 2 nM FAM-Bid, 20 nM Mcl-1, 30 min
T1 construct: Tag-free Mcl-1 protein (residues 171-323) was used in the FP assay
T1 sequence (Q07820 171-323): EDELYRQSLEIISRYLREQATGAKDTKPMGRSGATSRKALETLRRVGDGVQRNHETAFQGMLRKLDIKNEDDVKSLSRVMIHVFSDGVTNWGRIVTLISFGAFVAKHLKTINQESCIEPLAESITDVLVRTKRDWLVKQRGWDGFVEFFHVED
In short: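 Tag-free Mcl-1 (20 nM) with 2 nM FAM-Bid peptide in PBS, 0.01% BGG, 0.01% Triton X-100, 5% DMSO, 30 min at room temperature. FP read at Ex 485/Em 528 nm. IC50 from 10-point curves normalised to DMSO and no-protein controls.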

OPM-2 cells = test: Cell viability assay (OPM-2 cells), CCK-8; type: cell-based; conditions: 5% FBS
In short: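 OPM-2 myeloma cells (20000/well) exposed to serially diluted compound for 24 h at 37 °C, 5% CO2, then incubated 4 h with CCK-8 and read at 450 nm. Readings normalized to vehicle; IC50 from nonlinear regression.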

NCI-H929 cells = test: Cell viability assay (NCI-H929 cells), CCK-8; type: cell-based; conditions: 5% FBS
In short: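 NCI-H929 cells from ATCC were seeded at 20000 cells/well in 95 μL of culture medium in 96-well plates and grown for 4 hrs. Compounds, serially diluted in DMSO and further diluted in medium, were added as 5 μL, and cells were incubated for 24 hrs at 37° C. with 5% CO2. Viability was measured with CCK-8.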

[3] = Pharmacokinetic studies in mice (IV and PO); type: in vivo; conditions: for F: PO 10 mg/kg vs IV 2 mg/kg; for AUC(0-inf) / AUC(0-t) / clearance / half-life / Cmax / MRT last / Vd / Tmax / Vd/F: mouse, plasma; for MRT last: read-out: MRT0-last; for Vd: read-out: Vss; for Vd/F: read-out: Vz/F
Method: Administration: Mice in the IV group was dosed at 2 mg/kg (20% PEG 400+10% Cremophor EL+70% PBS 7.4) via tail vein injection (N=9). Mice in the PO group was dosed at 10 mg/kg (20% PEG 400+10% Cremophor EL+70% PBS 7.4) via oral gavage (N=9). All the mice were fasted overnight before dosing and had free access to food 4 hr post dosing.
Sampling: The animal was restrained manually at the designated time points (0.083, 0.25, 0.5, 1, 2, 4, 6, 8 and 24 hr), approximately 110 μL of blood sample was collected via retro-orbital puncture or cardiac puncture for terminal bleeding under the anesthesia with Isoflurane inhalation into K2EDTA tubes. The blood samples were maintained in wet ice first and centrifuged to obtain plasma (2000 g, 4° C., 5 min) within 15 minutes post sampling. All the plasma samples were stored at approximately −70° C. until analysis.

[4] = system: MV-4-11, NCI-H929 and OPM-2 xenografts; test: In vivo xenograft studies (subcutaneous tumor models); conditions: tumor-bearing mice, as compared to AMG-176
Method: Female SCID mice at 4-6 weeks old were purchased from Shanghai Laboratory Animal Center (SLAC) and 1×10^7 MV-4-11 cells per mouse in 0.2 ml of PBS with 30% Matrigel were inoculated subcutaneously to the right flank of mice. Volumes of the tumor were estimated as V=LW^2/2, where L and W stand for tumor length and width. Mice with tumor at 50-150 mm^3 were randomized into treatment groups (5 mice per group) and started treatment. Compounds were administered at selected doses by p.o. or i.v. administration. The individual relative tumor volume (RTV) is calculated as following: RTV=Vt/V0, where Vt is the volume on each day of measurement and V0 is the volume on the initial day of treatment. Therapeutic effect of compound is expressed with relative tumor proliferation rate (T/C). The calculation formula is: T/C=mean RTV of the treated group/mean RTV of the control group. Treatments producing >20% lethality and/or 20% net body weight loss were considered toxic. Similar procedures were used in the for the NCI-H929 and OPM-2 xenograft experiments. See FIGS. 1, 3, 5, 7, 9, 11, and 13. Body weight changes in tumor-bearing mice were also measured. See FIGS. 2, 4, 6, 8, 10, 12, and 14.

[5] = IV 2 mg/kg, read-out: C0/Cmax (C0)
[6] = PO 10 mg/kg, read-out: C0/Cmax (Cmax)

Row | SMILES | IC50 [2] [nM] | IC50 (OPM-2 cells; Homo sapiens, OPM-2, 24 h) [nM] | IC50 (NCI-H929 cells; Homo sapiens, NCI-H929, 24 h) [nM] | F [3] [%] | AUC(0-inf) ([3]; IV 2 mg/kg) [ng·h/mL] | AUC(0-t) ([3]; IV 2 mg/kg) [ng·h/mL] | clearance ([3]; IV 2 mg/kg) [mL/min/kg] | half-life ([3]; IV 2 mg/kg) [h] | Cmax [3, 5] [ng/mL] | MRT last ([3]; IV 2 mg/kg) [h] | Vd ([3]; IV 2 mg/kg) [L/kg] | AUC(0-inf) ([3]; PO 10 mg/kg) [ng·h/mL] | AUC(0-t) ([3]; PO 10 mg/kg) [ng·h/mL] | Tmax ([3]; PO 10 mg/kg) [h] | half-life ([3]; PO 10 mg/kg) [h] | Cmax [3, 6] [ng/mL] | MRT last ([3]; PO 10 mg/kg) [h] | Vd/F ([3]; PO 10 mg/kg) [L/kg] | further results
1 | CO[C@@]1(C=O)C2=C[C@@H](C2)[C@H](C)[C@@H](C)S(=O)(=O)NC(=O)c2ccc3c(c2)N(C[C@@H]2CC[C@H]21)C[C@@]1(CCCc2c1ccc(Cl)c2F)CO3 |  |  |  |  |  |  |  |  |  |  |  |  |  |  |  |  |  |  | ring closure, yield of all isomers ([1]; from CO[C@@](C=O)(C1=C[C@H]([C@H](C)[C@@H](C)S(N)(=O)=O)C1)[C@@H]1CC[C@H]1CN1C[C@@]2(CCCc3c2ccc(Cl)c3F)COc2ccc(C(=O)O)cc21, DIPEA, DMAP, 6.4 mM, 0.0 °C): 89%
2 | CC(=O)OC1C2=C[C@@H](C2)[C@H](C)[C@@H](C)S(=O)(=O)NC(=O)c2ccc3c(n2)N(C[C@@H]2CC[C@@H]12)C[C@@]1(CCCc2c1ccc(Cl)c2F)CO3 (stereo partly drawn) |  |  |  |  |  |  |  |  |  |  |  |  |  |  |  |  |  |  | ring closure, yield of all isomers ([1]; from CC(=O)OC(C1=C[C@H]([C@H](C)[C@@H](C)S(N)(=O)=O)C1)[C@@H]1CC[C@H]1CN1C[C@@]2(CCCc3c2ccc(Cl)c3F)COc2ccc(C(=O)O)nc21, DIPEA, DMAP, 24.6 mM): 100%
3 | CO[C@H]1C2=CC(C)(C2)[C@H](C)CS(=O)(=O)NC(=O)c2ccc3c(c2)N(C[C@@H]2CC[C@H]21)C[C@@]1(CCCc2cc(Cl)ccc21)CO3 (mixture of isomers) [13 (mixture)] | 21 | 348 | 89 | 57.2 | 5200 | 4780 | 6.4 | 6.5 | 861 | 6.2 | 3.2 | 14900 | 14400 | 4 | 4.5 | 1270 | 6.6 | 4.4 | 
4 | COCCO[C@H]1C2=CC(C2)[C@H](C)[C@@H](C)S(=O)(=O)NC(=O)c2ccc3c(c2)N(C[C@@H]2CC[C@H]21)C[C@@]1(CCCc2cc(Cl)ccc21)CO3 (mixture of isomers) [16 (mixture)] | 9 | 136 | 37 | 70.5 | 2440 | 2380 | 13.6 | 1.6 | 1260 | 1.9 | 1.7 | 8620 | 8360 | 2 | 4.9 | 1690 | 4.5 | 8.3 | 
5 | CC(=O)O[C@H]1C2=C[C@@H](C2)[C@H](C)[C@@H](C)S(=O)(=O)NC(=O)c2ccc3c(c2)N(C[C@@H]2CC[C@H]21)C[C@@]1(CCCc2c1ccc(Cl)c2F)CO3 |  |  |  |  |  |  |  |  |  |  |  |  |  |  |  |  |  |  | ring closure, yield of all isomers ([1]; from CC(=O)O[C@@H](C1=C[C@H]([C@H](C)[C@@H](C)S(N)(=O)=O)C1)[C@@H]1CC[C@H]1CN1C[C@@]2(CCCc3c2ccc(Cl)c3F)COc2ccc(C(=O)O)cc21, TEA, 14.5 mM): 100%
6 | CO[C@H]1C2=CC(C2)[C@H](C)CS(=O)(=O)NC(=O)c2ccc3c(c2)N(C[C@@H]2CC[C@H]21)C[C@@]1(CCCc2cc(Cl)ccc21)CO3 (single isomer, unassigned) [Cpd. No. 14 (Isomer 1)] | 4.7 |  |  | 134.6 | 4720 | 4690 | 7.07 | 3.6 | 1510 | 3.9 | 1.7 | 31800 | 31400 | 2 | 3.6 | 3920 | 5.6 | 1.6 | IC50 (OPM-2 cells; 24 h): 208 nM; IC50 (NCI-H929 cells; 24 h): 26 nM
7 | CO[C@H]1C2=CC(C2)[C@H](C)CS(=O)(=O)NC(=O)c2ccc3c(c2)N(C[C@@H]2CC[C@H]21)C[C@@]1(CCCc2c1ccc(Cl)c2F)CS3 (stereo partly drawn) |  |  |  |  |  |  |  |  |  |  |  |  |  |  |  |  |  |  | ring closure, yield of all isomers ([1]; from CO[C@@H](C1=CC([C@H](C)CS(N)(=O)=O)C1)[C@@H]1CC[C@H]1CN1C[C@@]2(CCCc3c2ccc(Cl)c3F)CSc2ccc(C(=O)O)cc21, Et3N, DMAP, 10.6 mM, 25.0 °C): 26.4%
8 | CO[C@H]1C2=CC(C2)[C@H](C)[C@@H](C)S(=O)(=O)NC(=O)c2ccc3c(c2)N(C[C@@H]2CC[C@H]21)C[C@@]1(CCCc2cc(Cl)c(F)cc21)CO3 (single isomer, unassigned) [Cpd. No. 21 (isomer 1)] | 6.6 | 1120 | 1000 | 94.1 | 8780 | 8740 | 3.8 | 3.7 | 5160 | 2.7 | 0.6 | 41300 | 41200 | 2 | 2.8 | 5260 | 4.9 | 9.9 | 
9 | CO[C@H]1C2=C[C@@H](C2)[C@H](C)[C@@H](C)S(=O)(=O)NC(=O)c2ccc3c(c2)N(C[C@@H]2CC[C@H]21)C[C@@]1(CCCc2cc(Cl)ccc21)CO3 (single isomer, unassigned) [Cpd. No. 15 (isomer 1)] | 9.7 | 84 | 18 | 84.7 | 7870 | 7580 | 4.23 | 4.9 | 2740 | 4.8 | 1.5 | 33300 | 33000 | 2 | 3.4 | 2720 | 6.1 | 1.5 | 
10 | CO[C@H]1C2=C[C@@H](C2)[C@H](C)[C@@H](C)S(=O)(=O)NC(=O)c2ccc3c(c2)N(C[C@@H]2CC[C@H]21)C[C@@]1(CCCc2c1ccc(Cl)c2F)CO3 (single isomer, unassigned) [Cpd. No. 17 (isomer 1)] | 8.1 | 62 | 16 | 92.9 | 15200 | 13900 | 2.18 | 7 | 997 | 6.7 | 1.2 | 70700 | 56000 | 4 | 10.6 | 4350 | 8.3 | 2.2 | body weight change (toxicity to the animals) [4]: less body weight change; tumor growth inhibition ([4]; p.o. or i.v.): surprisingly better tumor growth inhibition
